Patent publication US11148991B2, “5-bromo-2-(alpha-hydroxypentyl)benzoic acid sodium salts in different crystal forms, and preparation method thereof” (priority 2013, dated 2021)

Columns and labels:
rat MCAO model = assay: Brain infarction volume and brain edema volume in rats with local brain ischemia (MCAO model); type: in vivo, Wistar rats
Excerpt: Wistar rats (50% of rats is female and another 50% of rats is male); 5-bromo-2-(α-hydroxypentyl)benzoic acid sodium salt (BZP, in the form of amorphous form, crystal form A and crystal form B, prepared according to the present invention), prepared in double distilled water; […] is in the form of white powder, manufactured by Beijing Chemical Works.
Administration method: 5-bromo-2-(α-hydroxypentyl)benzoic acid sodium salt (BZP) was intravenously injected at one hour before MCAO, with the dosage of 12 mg/kg; 5-bromo-2-(α-hydroxypentyl)benzoic acid sodium salt (BZP) was used to intragastric administration at one hour before MCAO, with the dosage of 20 mg/kg. 2-(α-hydroxypentyl)benzoic acid potassium salt (NBP-K) was used as positive control, and its dosage (calculated in moles) is the same as that of 5-bromo-2-(α-hydroxypentyl)benzoic acid sodium salt, that is, the dosage of intravenous injection is 9.6 mg/kg, and the dosage of intragastric administration is 15.9 mg/kg.
Preparation of MCAO model: Establish a focal brain ischemia-reperfusion injury model by cerebral artery obstruction in rats with suture-occluded method. Rats were intraperitoneally injected with 10% chloral hydrate to anesthetize. Rats were fixed on back and the skin of neck center was incised. The left common carotid artery, external carotid artery, and internal carotid artery were subjected to blunt dissection. The pterygopalatine artery was ligated, only remaining cranial trunk of internal carotid artery; a prepared nylon rope (burning diameter 0.3 mm) was inserted via external carotid artery incision into the bifurcation of the […], and was pushed along the cranial direction of the internal carotid artery. […] This indicates one side of the middle cerebral artery occlusion model was completed. Sutured the incision, remained the end of nylon line out of the skin. For reperfusion, the nylon line was gently pulled out. If feel force of resistance, this indicates the end of nylon line has returned to the trunk of external carotid artery, thereby accomplishing reperfusion.
Determination of infarction volume: After being subjected to ischemia for 2 hours and reperfusion for 24 hours, the heads of rats were cut off. Forebrain was removed and cut into six pieces, each piece being 2 mm. The pieces were stained with TC, and incubated at 37° C. for 30 minutes. Normal issues were stained to be red, but the infarcted issues were stained to be white. Took photos with digital camera, and calculated the percentage of the infarcted area relative to the spherical area of brain by Photoshop.

Rat = assay: Sub-acute toxicity, rat
[1] = Acute toxicity (LD50), rat; conditions: in vivo
[2] = Acute toxicity (LD50), mouse; conditions: in vivo
[3] = Solubility in water and methanol; type: physicochemical; conditions: sodium salt
[4] = Stability in water and methanol solution; type: physicochemical; conditions: sodium salt
[5] = intragastric administration one hour before MCAO, BZP 20 mg/kg, NBP-K 15.9 mg/kg
[6] = intravenous injection one hour before MCAO, 12 mg/kg
[7] = intragastric administration one hour before MCAO, BZP 20 mg/kg, NBP-K 15.9 mg/kg, sodium salt
[8] = intravenous injection one hour before MCAO, 12 mg/kg, sodium salt, 12 mg/kg
[9] = intravenous injection one hour before MCAO, BZP 12 mg/kg, NBP-K 9.6 mg/kg, ischemia 2 hours, reperfusion 24 hours, sodium salt
[10] = intravenous injection one hour before MCAO, BZP 12 mg/kg, NBP-K 9.6 mg/kg, sodium salt

For CCCCC(O)c1ccccc1C(=O)[O-].[K+] (stereo not drawn) [NBP-K, 2-(α-hydroxypentyl)benzoic acid potassium salt, reference compound], the “Edema (%)” value (rat MCAO model; [5]) was 11.04 ± 1.48^aa** %, the “Infarction volume (%)” value (rat MCAO model; [5]) was 22.28 ± 2.65^aa % and the “Inhibition of edema (%)” value (rat MCAO model; [5]) was 42.65%. The “Inhibition of infarction volume (%)” value (rat MCAO model; [5]) was 58.3%, the “Edema (%)” value (rat MCAO model; [6]) was 12.38 ± 1.29% and the “Inhibition of edema (%)” value (rat MCAO model; [6]) was 9.37%. The “Inhibition of infarction volume (%)” value (rat MCAO model; intravenous injection one hour before MCAO, BZP 12 mg/kg, NBP-K 9.6 mg/kg) was 54.42%, the “Infarction volume (%)” value (rat MCAO model; intravenous injection one hour before MCAO, BZP 12 mg/kg, NBP-K 9.6 mg/kg, ischemia 2 hours, reperfusion 24 hours) was 24.35 ± 4.32^aa % and the “Sub-acute” value (Rat; ig) was >20 mg/kg. The “Sub-acute” value (Rat; iv) was >12 mg/kg, the LD50 ([1]; iv) was 230 mg/kg and the LD50 ([1]; po) was 623 mg/kg. The LD50 ([2]; iv) was 303 mg/kg and the LD50 ([2]; po) was 880 mg/kg.

For CCCCC(O)c1ccc(Br)cc1C(=O)[O-].[Na+] (stereo not drawn) [BZP (crystal form A), 5-bromo-2-(α-hydroxypentyl)benzoic acid sodium salt], the “Edema (%)” value (rat MCAO model; [7]) was 2.7 ± 1.30^aa** %, the “Infarction volume (%)” value (rat MCAO model; [7]) was 7.13 ± 2.98 aa % and the “Inhibition of edema (%)” value (rat MCAO model; [7]) was 87.55%. The “Inhibition of infarction volume (%)” value (rat MCAO model; [7]) was 86.65%, the “Edema (%)” value (rat MCAO model; [8]) was 3.24 ± 4.11^aa* % and the “Inhibition of edema (%)” value (rat MCAO model; [8]) was 81.28%. The “Infarction volume (%)” value (rat MCAO model; [9]) was 4.54 ± 1.73 aa %, the “Inhibition of infarction volume (%)” value (rat MCAO model; [10]) was 91.50% and the “Solubility in methanol” value ([3]; listed as BZP (Form A)) was 1800 mg/mL. For the same compound, the “Solubility in water” value ([3]; listed as BZP (Form A)) was 2360 mg/mL, the “Stability” value ([4]; in methanol solution, listed as BZP (Form A)) was >24 h and the “Stability” value ([4]; in water, listed as BZP (Form A)) was >20 h.

In the case of CCCCC(O)c1ccc(Br)cc1C(=O)[O-].[Na+] (stereo not drawn) [BZP (crystal form B), 5-bromo-2-(α-hydroxypentyl)benzoic acid sodium salt], the “Edema (%)” value (rat MCAO model; [7]) was 2.87 ± 1.56^aa** %, the “Infarction volume (%)” value (rat MCAO model; [7]) was 7.13 ± 2.98^aa** % and the “Inhibition of edema (%)” value (rat MCAO model; [7]) was 85.09%. For the same compound, the “Inhibition of infarction volume (%)” value (rat MCAO model; [7]) was 86.03%, the “Edema (%)” value (rat MCAO model; [8]) was 4.20 ± 2.03a % and the “Inhibition of edema (%)” value (rat MCAO model; [8]) was 78.71%. For the same compound, the “Infarction volume (%)” value (rat MCAO model; [9]) was 4.76 ± 1.45 aa %, the “Inhibition of infarction volume (%)” value (rat MCAO model; [10]) was 91.09% and the “Solubility in methanol” value ([3]; listed as BZP (Form B)) was 1630 mg/mL. The “Solubility in water” value ([3]; listed as BZP (Form B)) was 2430 mg/mL, the “Stability” value ([4]; in methanol solution, listed as BZP (Form B)) was >24 h and the “Stability” value ([4]; in water, listed as BZP (Form B)) was >24 h.

For CCCCC(O)c1ccc(Br)cc1C(=O)[O-].[Na+] (stereo not drawn) [5-bromo-2-(α-hydroxypentyl)benzoic acid sodium salt], the “Activity compared with 2-(α-hydroxypentyl)benzoic acid potassium salt” value (rat MCAO model; at the same dosage, conclusion in words) was “obviously better than 2-(α-hydroxypentyl)benzoic acid potassium salt” and the “Effect on brain tissue injury induced by obstruction of cerebral arteries” value (rat MCAO model; rats, conclusion in words) was “can obviously reduce brain tissue injury induced by obstruction of cerebral arteries”.

With CCCCC(O)c1ccc(Br)cc1C(=O)[O-].[Na+] (mixture of isomers) [BZP (mixture), 5-bromo-2-(α-hydroxypentyl)benzoic acid sodium salt, reference compound] the “Solubility in methanol” value [3] was 1580 mg/mL, the “Solubility in water” value [3] was 2130 mg/mL and the “Stability” value ([4]; in methanol solution) was >12 h. For the same compound, the “Stability” value ([4]; in water) was >12 h.
